Blank lines part the entries; values can stand above or below the compound they belong to.
Legend:
[1] = biological target: T1, Type-2 angiotensin II receptor (Homo sapiens, UniProt P50052); format: functional
T1 sequence (P50052 whole entry): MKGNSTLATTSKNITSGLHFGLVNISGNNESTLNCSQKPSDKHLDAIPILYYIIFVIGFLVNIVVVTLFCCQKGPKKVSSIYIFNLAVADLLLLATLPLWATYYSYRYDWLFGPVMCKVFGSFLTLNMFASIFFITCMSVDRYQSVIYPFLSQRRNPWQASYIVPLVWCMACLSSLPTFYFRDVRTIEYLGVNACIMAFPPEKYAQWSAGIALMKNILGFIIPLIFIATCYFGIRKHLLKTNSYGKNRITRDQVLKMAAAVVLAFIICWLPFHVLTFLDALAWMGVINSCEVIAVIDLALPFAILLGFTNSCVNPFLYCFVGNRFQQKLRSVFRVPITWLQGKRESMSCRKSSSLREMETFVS

[2] = biological target: T2, Prostaglandin G/H synthase 1 (Rattus norvegicus, UniProt Q63921); format: functional
T2 sequence (Q63921 whole entry): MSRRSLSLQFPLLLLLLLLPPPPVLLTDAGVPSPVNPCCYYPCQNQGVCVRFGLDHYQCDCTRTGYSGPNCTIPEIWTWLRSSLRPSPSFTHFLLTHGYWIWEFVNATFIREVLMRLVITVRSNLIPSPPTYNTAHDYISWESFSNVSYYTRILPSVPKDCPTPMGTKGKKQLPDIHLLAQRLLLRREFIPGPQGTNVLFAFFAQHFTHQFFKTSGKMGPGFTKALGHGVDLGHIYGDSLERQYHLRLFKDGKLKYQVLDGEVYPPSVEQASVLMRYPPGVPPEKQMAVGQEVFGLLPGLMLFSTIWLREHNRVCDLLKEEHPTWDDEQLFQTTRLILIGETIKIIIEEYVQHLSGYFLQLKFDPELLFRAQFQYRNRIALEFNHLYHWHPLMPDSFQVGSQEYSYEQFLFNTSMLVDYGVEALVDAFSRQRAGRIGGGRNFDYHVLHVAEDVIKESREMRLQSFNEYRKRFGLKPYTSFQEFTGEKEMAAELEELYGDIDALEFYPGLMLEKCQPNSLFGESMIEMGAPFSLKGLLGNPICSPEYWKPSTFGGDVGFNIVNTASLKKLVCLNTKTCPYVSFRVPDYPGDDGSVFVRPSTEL

[3] = biological target: Oxysterols receptor LXR-beta (Homo sapiens, UniProt P55055); format: functional
[4] = biological target: Oxysterols receptor LXR-alpha (Homo sapiens, UniProt Q13133); format: functional
[5] = biological target: T3, Muscarinic acetylcholine receptor M2 (Homo sapiens, UniProt P08172)
T3 sequence (P08172 whole entry): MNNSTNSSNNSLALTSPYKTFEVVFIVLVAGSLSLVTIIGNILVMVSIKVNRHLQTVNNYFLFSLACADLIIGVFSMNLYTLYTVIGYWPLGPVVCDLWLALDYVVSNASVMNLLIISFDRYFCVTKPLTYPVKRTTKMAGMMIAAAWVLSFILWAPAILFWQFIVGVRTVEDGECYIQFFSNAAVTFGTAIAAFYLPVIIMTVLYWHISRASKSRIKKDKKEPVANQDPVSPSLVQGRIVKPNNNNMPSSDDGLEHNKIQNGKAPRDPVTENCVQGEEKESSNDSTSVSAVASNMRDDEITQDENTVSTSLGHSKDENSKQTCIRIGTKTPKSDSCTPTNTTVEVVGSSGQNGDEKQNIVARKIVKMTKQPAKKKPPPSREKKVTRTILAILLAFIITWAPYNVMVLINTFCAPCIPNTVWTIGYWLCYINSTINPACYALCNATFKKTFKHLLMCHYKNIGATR
Note: assay procedure not described here.

Sequence of Oxysterols receptor LXR-alpha (Q13133 whole entry): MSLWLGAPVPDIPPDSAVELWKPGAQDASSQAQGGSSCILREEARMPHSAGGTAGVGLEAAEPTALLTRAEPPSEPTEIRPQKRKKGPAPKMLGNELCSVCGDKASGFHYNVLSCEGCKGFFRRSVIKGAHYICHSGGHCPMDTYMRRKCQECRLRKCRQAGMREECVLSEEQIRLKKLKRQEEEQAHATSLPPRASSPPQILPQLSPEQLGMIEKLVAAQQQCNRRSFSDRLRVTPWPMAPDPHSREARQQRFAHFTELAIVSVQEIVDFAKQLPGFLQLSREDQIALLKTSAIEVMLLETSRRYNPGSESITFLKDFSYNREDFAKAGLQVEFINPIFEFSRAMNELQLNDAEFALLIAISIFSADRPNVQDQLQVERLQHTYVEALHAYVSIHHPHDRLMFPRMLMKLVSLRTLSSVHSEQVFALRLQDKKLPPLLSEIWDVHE
Sequence of Oxysterols receptor LXR-beta (P55055 whole entry): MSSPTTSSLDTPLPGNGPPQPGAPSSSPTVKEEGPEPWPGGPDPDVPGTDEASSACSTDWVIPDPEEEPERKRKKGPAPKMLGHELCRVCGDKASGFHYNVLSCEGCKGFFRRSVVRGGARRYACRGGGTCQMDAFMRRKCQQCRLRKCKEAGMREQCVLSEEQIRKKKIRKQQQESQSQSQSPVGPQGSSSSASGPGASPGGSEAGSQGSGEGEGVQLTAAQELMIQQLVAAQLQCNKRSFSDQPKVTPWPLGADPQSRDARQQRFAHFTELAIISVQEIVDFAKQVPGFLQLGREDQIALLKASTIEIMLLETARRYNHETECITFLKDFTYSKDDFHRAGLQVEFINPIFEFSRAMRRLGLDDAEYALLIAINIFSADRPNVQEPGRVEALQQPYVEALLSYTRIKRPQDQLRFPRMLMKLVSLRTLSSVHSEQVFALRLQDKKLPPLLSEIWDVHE

AC50 [1]: 84.8 µM
SMILES: CCOc1nc2cccc(C(=O)O)c2n1Cc1ccc(-c2ccccc2-c2nnn[nH]2)cc1

AC50 [2]: > 30 µM
SMILES: CN(CCOc1ccc(CC2SC(=O)NC2=O)cc1)c1ccccn1 (stereo not given) [ROSIGLITAZONE]

AC50 [3]: > 30 µM
AC50 [4]: > 30 µM
SMILES: COc1cc(C(=O)NS(=O)(=O)c2ccccc2C)ccc1Cc1cn(C)c2ccc(NC(=O)OC3CCCC3)cc12 [ZAFIRLUKAST]

SMILES: O=C1Cc2cc(CCN3CCN(c4nsc5ccccc45)CC3)c(Cl)cc2N1 [ZIPRASIDONE]
AC50 [5]: 6.3 µM

— ChEMBL document CHEMBL5291721, “A preclinical secondary pharmacology resource illuminates target-adverse drug reaction associations of marketed drugs” (Nat Commun, 2023)
